In US20240336615A1, “CYCLOPROPYL-(HETERO)ARYL-SUBSTITUTED ETHYL-SULFOXIME-PYRIDINE DERIVATIVES” (Boehringer Ingelheim Vetmedica GmbH, priority 2023, published 2024) one finds mortality, pest or weed control and EC50 data, which are given here for 17 molecules.

The term mortality denotes the share of the test organisms that died.

The structures appear in SMILES notation.

One assay has as its system Laodelphax striatellus. As to the kind of experiment: Insecticidal test on Laodelphax striatellus (Example 16). Format: in vivo. The conditions noted are these: 192 h, rice seedling dip, 3rd-instar nymphs, 8 days after inoculation, read-out: activity level (corrected mortality rate). The protocol:
The compounds of formula (I), (Ia) and/or (Ib) of the present invention or salts thereof are separately dispersed in water and diluted to 500 ppm and 50 ppm. Rice plant seedlings are dipped in the dispersion for about 30 seconds. After air dried, the seedlings are put into a separate glass test tube and inoculated with ten 3rd-instar nymphs of Laodelphax striatellus and then the glass test tube is kept in a room at 25° C. 8 days after the inoculation, the numbers of the dead and alive insects are counted. The corrected mortality rate is calculated according to the following formula and the insecticidal activity is evaluated according to the following criteria.

Another assay relates to Myzus persicae. As to the kind of experiment: Insecticidal test on Myzus persicae (Example 17). It counts as in vivo. The note with it: 144 h, foliar application on Chinese cabbage, 6 days after application, read-out: control efficacy level (control rate). The source says: The compounds of formula (I), (Ia) and/or (Ib) of the present invention or salts thereof are separately dispersed in water and diluted to 500 ppm and 50 ppm. Chinese cabbage plants are planted in plastic pots (diameter: 8 cm, height: 8 cm). Aphids (Myzus persicae) are propagated on the plants and then the number of surviving aphids is counted. The dispersion is applied to the foliage of the potted plants. After the plants are air dried, these are kept in a greenhouse. 6 days after the application, the number of the alive insects is counted on the plants. The control rate is calculated according to the following formula and the control efficacy is evaluated according to the following criteria. [formula] • Ta: the number of alive insects before the foliar application in a treated plot • T: the number of alive insects after the foliar application in a treated plot • Ca: the number of alive insects before the foliar application in an untreated plot • C: the number of alive insects after the foliar application in an untreated plot • A: the control rate is 100% • B: the control rate is 90 to 99% • C: the control rate is 80 to 89% • D: the control rate is 50 to 79%

The test system of the next assay is Plutella xylostella. As to the kind of experiment: Insecticidal test on Plutella xylostella (Example 15). Format: in vivo. The note with it: 144 h, Chinese cabbage seedling dip, 6 days after dip treatment, read-out: activity level (corrected mortality rate). The protocol:
The compounds of formula (I), (Ia) and/or (Ib) of the present invention or salts thereof are separately dispersed in water and diluted to 500 ppm and 50 ppm. Ten adults of Plutella xylostella are released onto Chinese cabbage seedlings and allowed to lay eggs thereon. 2 days after the release of the adults, the seedling is dipped in the dispersion for about 30 seconds. After air dried, the seedling is kept in a room at 25° C. 6 days after the dip treatment, the numbers of the dead and alive insects are counted. The corrected mortality rate is calculated according to the following formula and the insecticidal activity is evaluated according to the following criteria.

Assay [1] relates to adult C. felis fleas. As to the kind of experiment: Ingestion activity against adult Ctenocephalides felis, membrane feeding, motility (Example 6). The conditions noted are these: 48 h, bovine blood via artificial membrane, 48h post treatment, read-out: EC50 (ingestion activity, % motility reduction). As to the method: Compounds of formulae (I), (Ia) and/or (Ib) dissolved in 100% DMSO are added to bovine blood and offered via an artificial membrane feeding system to adult C. felis fleas. The motility of fleas is then visually inspected 48h post treatment. Efficacy is expressed in % motility reduction compared to controls containing blood treated with DMSO only. A dose response series is implemented to determine EC50 values.

Assay [2] relates to adult C. felis fleas. As to the kind of experiment: Ingestion activity against adult Ctenocephalides felis, membrane feeding, alternative method (Examples 7 and 13). As to the method: Selected compounds of formula (I), (Ia) and (Ib) and compound “125” of WO 2021/033141 dissolved in 100% DMSO are diluted in bovine blood with sodium heparin anti-coagulant. The resulting formulation is offered via an artificial membrane feeding system to approximately 15 adult C. felis fleas previously dispensed into 24-well plates. The plates are then incubated in a double-chambered device. Visual evaluation for mortality is performed at 48 hours post-treatment. Compound efficacy at a given dose is expressed as percentage mortality and determined by normalization to positive and negative controls. A dose response series is implemented to determine EC50 values.
Compounds of formulae (I), (Ia) and/or (Ib) dissolved in 100% DMSO are diluted in bovine blood with sodium heparin anti-coagulant. The resulting formulation is offered via an artificial membrane feeding system to approximately 15 adult C. felis fleas previously dispensed into 24-well plates. The plates are then incubated in a double-chambered device. Visual evaluation for mortality is performed at 48 hours post-treatment. Compound efficacy at a given dose is expressed as percentage mortality and determined by normalization to positive and negative controls. A dose response series is implemented to determine EC50 values.

For assay [3], the system named is adult Ctenocephalides felis fleas. As to the kind of experiment: Contact activity against adult Ctenocephalides felis (Example 4). The conditions noted are these: adult C. felis, coated pipe cleaner in vial, 72 hours post-treatment, read-out: EC50 (contact activity, percentage mortality). As to the method:
Compounds of formulae (I), (Ia) and/or (Ib) dissolved in 100% DMSO are diluted in acetone to a desired concentration. The resulting formulation is used to coat the fibers of a 0.5-inch-long piece of pipe cleaner placed in a glass scintillation vial. The vial is capped with a rubber gasket and filter paper insert. After the acetone has evaporated, ten adult Ctenocephalides felis fleas are added to each vial. The vials are then incubated at 22° C., 80% relative humidity, and 12 hours of light/12 hours of dark until a visual evaluation for mortality is performed at 72 hours post-treatment. Compound efficacy at a given dose is expressed as percentage mortality and adjusted to remove background mortality observed in control vials containing DMSO only. A dose response series of treated vials is implemented to determine EC50 values.

In another assay the test system is Spodoptera litura. As to the kind of experiment: Insecticidal test on Spodoptera litura (Example 14). Format: in vivo. The conditions noted are these: foliar, 192 h, 500 ppm, cabbage leaf dip, 2nd-instar larvae, 8 days after inoculation, read-out: activity level (corrected mortality rate). The protocol: The compounds of formula (I), (Ia) and/or (Ib) of the present invention or salts thereof are separately dispersed in water and diluted to 500 ppm and 50 ppm. Cabbage leaves are dipped in the dispersion for about 30 seconds. After air dried, the leaves are placed in a plastic Petri dish with a diameter of 9 cm and inoculated with ten 2nd-instar larvae of Spodoptera litura, after which the dish is closed and then allowed to stand in a room at 25° C. 8 days after the inoculation, the numbers of the dead and alive insects are counted. The corrected mortality rate is calculated according to the following formula and the insecticidal activity is evaluated according to the following criteria.
[formula] [formula] • A: the corrected mortality rate is 100% • B: the corrected mortality rate is 90 to 99% • C: the corrected mortality rate is 80 to 89% • D: the corrected mortality rate is 50 to 79%

The mark [4] stands for this setting: Ctenocephalides felis, adult C. felis, bovine blood with sodium heparin, membrane feeding, 48 hours post-treatment, read-out: EC50 (ingestion activity, percentage mortality, alternative method).
Setting [5] is: Ctenocephalides felis, alternative method according to Example 7, mortality at 48 hours post-treatment, read-out: C. felis membrane feeding (ingestion/blood feeding) activity EC50.
Setting [6] is: alternative method according to Example 7, mortality at 48 hours post-treatment, read-out: C. felis membrane feeding (ingestion/blood feeding) activity EC50.

For `CCS(=N)(=O)c1cc(-c2noc(C3(F)CC3)n2)cnc1-c1nc2cc(C(F)(F)C(F)(F)F)nnc2n1C` (stereo not drawn) [Compound 32], the mortality at 50 ppm in the assay with Laodelphax striatellus and in the assay on Plutella xylostella was 100% in each case. The pest or weed control at 50 ppm in the assay with Myzus persicae is 100%. For the same molecule, the EC50 with adult C. felis fleas [1] was less than 1 µM; in the assay on adult C. felis fleas [2] (setting [4]), less than 1 µM; with adult C. felis fleas [2] (setting [5]) it was 0.417 µM; in assay [3], less than 10 µM.
As to `CCS(=N)(=O)c1cc(-n2cc(C3CC3)nn2)cnc1-c1nc2cc(C(F)(F)C(F)(F)F)cnc2n1C` (stereo not drawn) [Compound 28], the mortality at 500 ppm in the assay with Laodelphax striatellus, with Plutella xylostella and with Spodoptera litura was 100% throughout. For the same molecule, in the assay with Myzus persicae, the pest or weed control at 500 ppm worked out at 100%. The EC50 in the assay with adult C. felis fleas [1] and in the assay with adult C. felis fleas [2] (setting [4]) was 1 to 10 µM throughout.
Take `CCS(=N)(=O)c1cc(-c2ccc(C3(C#N)CC3)cc2)cnc1-n1cc2cnc(C(F)(F)F)cc2n1` (stereo not drawn) [Compound 35]: the results for the EC50 in the assay with adult C. felis fleas [1], with adult C. felis fleas [2] (setting [4]) and in the assay on adult C. felis fleas [2] (setting [5]) were 1 to 10 µM, less than 1 µM and 0.771 µM, respectively.
For the molecule `CCS(=N)(=O)c1cc(-c2noc(C3(C(F)(F)F)CC3)n2)cnc1-c1nc2cc(C(F)(F)C3CC3)nnc2n1C` (stereo not drawn) [Compound 4], the EC50 was less than 1 µM with adult C. felis fleas [1], less than 1 µM with adult C. felis fleas [2] (setting [4]), 0.474 µM with adult C. felis fleas [2] (setting [5]) and 10 to 100 µM in assay [3].
Take `CCS(=N)(=O)c1cc(-c2noc(C3(F)CC3)n2)cnc1-c1nc2cc(C(C)(F)F)cnc2n1C` (stereo not drawn) [Compound 18]: the mortality at 50 ppm in the assay on Laodelphax striatellus and in the assay on Plutella xylostella was 100% in each case. The pest or weed control at 50 ppm in the assay on Myzus persicae was determined as 100%.
For `CCS(=N)(=O)c1cc(-c2ccc(C3(C#N)CC3)cc2)cnc1-c1nc2cc(C(C)(F)F)cnc2n1C` (stereo not drawn) [Compound 2], the mortality at 500 ppm in the assay on Laodelphax striatellus, in the assay with Plutella xylostella and with Spodoptera litura was 100% in each case. Moreover, the pest or weed control at 500 ppm with Myzus persicae is 100%. The EC50 with adult C. felis fleas [1] and with adult C. felis fleas [2] (setting [4]) was 1 to 10 µM each time.
As to `CCS(=N)(=O)c1cc(-c2noc(C3CC3)n2)cnc1-c1nc2cc(C(C)(F)F)nnc2n1C` (stereo not drawn) [Compound 13], the mortality at 50 ppm in the assay with Laodelphax striatellus and in the assay with Plutella xylostella was 100% in each case. Further, the pest or weed control at 50 ppm in the assay on Myzus persicae was found to be 100%. The figures for the EC50 with adult C. felis fleas [1] and in the assay on adult C. felis fleas [2] (setting [4]) were less than 1 µM and 1 to 10 µM, respectively.
As to `CCS(=N)(=O)c1cc(-c2ccc(C3(C#N)CC3)cc2)cnc1-c1nc2cc(C(C)(F)F)cn(CC(F)F)c-2c1F` (stereo not drawn) [Compound 16], in the assay with adult C. felis fleas [2] (setting [4]), the EC50 fell in the range of 1 to 10 µM.
As for `CC[SH](=N)(O)c1cc(-c2noc(C3CC3)n2)cnc1-c1nc2cc(C(F)(F)C(F)(F)F)nnc2n1C` [Compound 8a], the EC50 with adult C. felis fleas [2] (setting [6]) was 0.482 µM.
For `CCS(=N)(=O)c1cc(-c2noc(C3CC3)n2)cnc1-c1nc2cc(C(F)(F)C3CC3)nnc2n1C` (stereo not drawn) [Compound 15], the mortality at 500 ppm in the assay on Laodelphax striatellus and with Plutella xylostella was 100% throughout. Also, in the assay with Myzus persicae, the pest or weed control at 500 ppm worked out at 100%. The EC50 in the assay with adult C. felis fleas [2] (setting [4]) lay within 1 to 10 µM.
For `CC[S@@](=N)(=O)c1cc(-c2noc(C3CC3)n2)cnc1-c1nc2cc(C(F)(F)C(F)(F)F)cnc2n1C` [Compound 7b, (R)-[5-(5-cyclopropyl-1,2,4-oxadiazol-3-yl)-2-[3-methyl-6-(1,1,2,2,2-pentafluoroethyl)-3H-imidazo[4,5-b]pyridin-2-yl]pyridin-3-yl](ethyl)imino-lambda6-sulfanone], in the assay with adult C. felis fleas [2] (setting [6]), the EC50 was found to be 1.35 µM.
With `CC[S@](=N)(=O)c1cc(-c2noc(C3CC3)n2)cnc1-c1nc2cc(C(F)(F)C(F)(F)F)cnc2n1C` [Compound 7a, (S)-[5-(5-cyclopropyl-1,2,4-oxadiazol-3-yl)-2-[3-methyl-6-(1,1,2,2,2-pentafluoroethyl)-3H-imidazo[4,5-b]pyridin-2-yl]pyridin-3-yl](ethyl)imino-lambda6-sulfanone], in the assay with adult C. felis fleas [2] (setting [6]), the EC50 is 0.385 µM.
Regarding `CCS(=N)(=O)c1cc(-c2noc(C3CC3)n2)cnc1-c1nc2cc(C(C)(F)F)cnc2n1C` (stereo not drawn) [Compound 10], the mortality at 500 ppm in the assay with Laodelphax striatellus and in the assay with Plutella xylostella was 100% in each case. Besides, the pest or weed control at 500 ppm in the assay with Myzus persicae was 100%.
For `CCS(=N)(=O)c1cc(-c2ccc(C3(C#N)CC3)cc2)cnc1-c1nc2cc(C(F)(F)F)cn(CC(F)F)c-2c1F` (stereo not drawn) [Compound 17], the EC50 in the assay with adult C. felis fleas [2] (setting [4]) was less than 1 µM; in the assay with adult C. felis fleas [2] (setting [5]), 0.33 µM.
As for `CCS(=N)(=O)c1cc(-n2cc(C3(C#N)CC3)cn2)cnc1-c1nc2cc(C(F)(F)C(F)(F)F)nnc2n1C` (stereo not drawn) [Compound 33], the mortality at 50 ppm with Laodelphax striatellus and in the assay with Plutella xylostella was 100% in each case. In addition, in the assay on Myzus persicae, the pest or weed control at 50 ppm was found to be 100%. Further, the results for the EC50 in the assay with adult C. felis fleas [1], with adult C. felis fleas [2] (setting [4]) and in the assay on adult C. felis fleas [2] (setting [5]) were 1 to 10 µM, less than 1 µM and 0.437 µM, respectively.
For `CCS(=N)(=O)c1cc(-c2noc(C3(F)CC3)n2)cnc1-c1nc2cc(C(C)(F)F)nnc2n1C` (stereo not drawn) [Compound 29], the mortality at 500 ppm with Laodelphax striatellus and in the assay on Plutella xylostella was 100% throughout. In the assay with Myzus persicae, the pest or weed control at 500 ppm is 100%. The values for the EC50 (in the assay on adult C. felis fleas [2] (setting [4]); in assay [3]) were 1 to 10 µM and 10 to 100 µM, respectively.
As for `CCS(=N)(=O)c1cc(-c2noc(C3CC3)n2)cnc1-c1nc2cc(C(F)(F)C3CC3)cnc2n1C` (stereo not drawn) [Compound 12], the pest or weed control at 500 ppm in the assay on Myzus persicae was 100%. Also, the mortality at 50 ppm with Plutella xylostella was 100%.
